One block for each compound: values may come before it.
What was measured:
Phosphodiesterase 4 [1] = biological target: T1, Phosphodiesterase 4 (Homo sapiens, UniProt P27815+Q08499+Q07343+Q08493); test: Inhibition of rolipram binding to Phosphodiesterase 4; format: protein assay
Phosphodiesterase 4 [2] = biological target: T1, Phosphodiesterase 4; test: Inhibition of cAMP-specific Phosphodiesterase 4 (PDE IV); format: protein assay

Compound: O=C1CC(c2ccc3c(c2)OCCO3)CN1 (configuration not stated)
Kd (Phosphodiesterase 4 [1]): > 100 µM
Ki (Phosphodiesterase 4 [2]): > 100 µM

Compound: O=C1CC(c2ccc3c(c2)OCO3)CN1 (configuration not stated)
Kd (Phosphodiesterase 4 [1]): > 100 µM
Ki (Phosphodiesterase 4 [2]): > 100 µM

Compound: O=C1CC(c2cc3c(c(OC4CCCC4)c2)OCCC3)CN1 (configuration not stated)
Kd (Phosphodiesterase 4 [1]): 0.21 µM
Ki (Phosphodiesterase 4 [2]): 1.17 µM

Compound: O=C1CC(c2ccc3c(c2)OC2(CCCCC2)O3)CN1 (configuration not stated)
Kd (Phosphodiesterase 4 [1]): 16.5 µM
Ki (Phosphodiesterase 4 [2]): 63.9 µM

More lines, now with the values ahead:

Kd (Phosphodiesterase 4 [1]): 0.03 µM
Ki (Phosphodiesterase 4 [2]): 0.26 µM
Compound: O=C1CC(c2cc(OC3CCCC3)c3occc3c2)CN1 (configuration not stated)

Kd (Phosphodiesterase 4 [1]): 4 µM
Ki (Phosphodiesterase 4 [2]): 3.69 µM
Compound: O=C1CC(c2cc3c(c(OC4CCCC4)c2)OCC3)CN1 (configuration not stated)
